# Literature values as cited in PMC12715049 (Journal of Molecular Medicine (Berlin, Germany), 2025).
# System: mHTT aggregates
# Conditions: read-out: IC50, binding to mHTT aggregates; radio-binding assays
compound,measurement,value
COc1ccc(COc2ccc3oc(-c4ccc(=O)n(C)n4)nc3c2)nc1 [CHDI-180R],IC50,1.3 ± 1 nM
